Source: a melting point compilation (Tetko et al.; mined from patent text by program, amines drawn as free bases though some values may be those of a salt)

First: O=C(O)c1cn(-c2ccc(F)cc2F)c2cc(Cl)c(F)c(Cl)c2c1=O
Second: Cn1cc(C(=O)NCc2ccc(Cl)cc2)c(=O)c2cc(CCl)cc(I)c21
The melting point of the first is higher: 244 to 246 °C for the first, 237 to 239 °C for the second.

Compared with `CON(C)C(=O)c1cc(N)c(F)cc1Cl`, `COc1cc(N)c(Cl)cc1C(=O)CC(O)c1ccncc1` (configuration not stated) is higher in melting point: 118 °C for the first, 181 to 183 °C for the second.

Compared with `CCOC(=O)C(NC(=O)OC(C)(C)C)C(c1ccc(O)cc1)S(=O)(=O)C(F)(F)F` (configuration not stated), `CCOC(=O)C(C)(C(=O)OCC)c1cccc(C(=O)c2ccccc2)c1[N+](=O)[O-]` is higher in melting point: 47 to 49 °C for the first, 102 to 104 °C for the second.

Compared with `O=C(O)c1c(-c2ccccc2)c(=O)[nH]c2cc(Cl)ccc12`, `Cc1cc2c(-c3ccccc3)c(C(=O)O)oc(=O)c2cc1C` is higher in melting point: 258 °C for the first, 265 to 268 °C for the second.

First: O=C(O)C1=Cc2cc(-c3ccc(Cl)s3)ccc2OC1C(F)(F)F (configuration not stated)
Second: CN(C)CCNS(=O)(=O)c1cc(NC(=O)c2cnn3c(C(F)F)cc(-c4ccc(C(F)(F)F)cc4)nc23)c(Cl)s1
The melting point of the first is higher: 205 to 206 °C for the first, 162 °C for the second.

First: Nc1ccc2nc3c(=O)[nH][nH]c(=O)c3c(O)c2c1
Second: COC(=O)c1cc2cc(N)ccc2o1
The melting point of the first is higher: 219 to 221 °C for the first, 112 to 113 °C for the second.

Compared with `CCOC(NC(=O)c1cccc(Cl)c1)C(N)=S` (configuration not stated), `CCOC(=O)C(C)Oc1ncn(-c2cccc(Cl)c2)n1` (configuration not stated) is lower in melting point: 136 to 137 °C for the first, 70 to 72 °C for the second.

First: CC(C)c1nn(-c2nc3ccccc3s2)c(-c2ccc(F)cc2)c1C=CC1CC(O)CC(=O)O1 (configuration not stated)
Second: CCCc1nc(C(C)O)c(C(=O)O)n1Cc1ccc(-c2ccccc2-c2nnn[nH]2)cc1 (configuration not stated)
The melting point of the first is lower: 168 to 170 °C for the first, 198 to 201 °C for the second.

Compared with `O=C1c2ccccc2C(=O)N1CCCCOc1ccc(-c2ccccc2)cc1`, `CC(C)Cn1nc(-c2ccccc2)c(-c2ccccc2)c1CO` is higher in melting point: 110 to 111 °C for the first, 154 °C for the second.

First: Clc1nc2nc(Cl)sc2s1
Second: Cc1nnc(-c2ccc3occc3c2)o1
The melting point of the first is higher: 180 °C for the first, 159 to 160 °C for the second.

First: CCSc1cn(C(C)C(=O)N(C)C)nc1-c1ccccc1 (configuration not stated)
Second: CN(N)c1nc(-c2ccccc2)c2cc(Cl)ccc2n1
The melting point of the first is lower: 70 to 72 °C for the first, 156 °C for the second.

First: O=C(O)c1cn(C2CC2)c2c(F)c(N3CCC(CNCCF)C3)c(F)cc2c1=O (configuration not stated)
Second: Nc1c(F)c(N2CCC(C(N)c3ccco3)C2)c(F)c2c1c(=O)c(C(=O)O)cn2C1CC1F (configuration not stated)
The melting point of the first is lower: 134 to 138 °C for the first, 188 to 189 °C for the second.

First: C(=NC1CN2CCC1CC2)c1ccc(-c2ccccc2)cc1 (configuration not stated)
Second: Fc1ccc(NCc2ccccc2)cc1
The melting point of the first is higher: 82 to 84 °C for the first, 38 to 39 °C for the second.

First: [N-]=[N+]=N[C@@H]1CN2C(=O)N(c3cc(Cl)nc(Cl)c3)C(=O)[C@@]2(Cc2ccc(OC(F)(F)F)cc2)C1
Second: Cn1nc(CS(C)(=O)=O)nc1NCCCOc1ccc(CN2CCCCC2)cc1
The melting point of the first is higher: 140 °C for the first, 131 to 134 °C for the second.

First: CNC(=O)c1cc(-c2ccc(OC)cc2)nn(C)c1=O
Second: COc1cc(Nc2nccc(-c3ccc(CO)cc3)n2)cc(OC)c1OC
The melting point of the first is lower: 150 to 151 °C for the first, 171 to 172 °C for the second.

Compared with `COC(=O)C(=Cc1c[nH]c2cc(Cl)ccc12)NC(C)=O`, `CC(=Cc1ccc2cc[nH]c2c1)C(=O)O` is lower in melting point: 202 to 203 °C for the first, 188 to 190 °C for the second.

Compared with `CN(CCSc1ccc2ncc([N+](=O)[O-])n2n1)c1ccnc(CO)c1Cl`, `CCn1nc(C)c2c1C(=O)Nc1ccccc1N2C(=O)CCl` is higher in melting point: 189 to 191 °C for the first, 208 to 210 °C for the second.

First: CSC1=NC(=O)C(=Cc2cccc(-c3cc(F)c(O)c(C45CC6CC(CC(C6)C4)C5)c3)c2)S1
Second: CNc1nc(-c2cccc(-c3cccc(SC)c3)c2)c2cc(OC)c(OC)cc2n1
The melting point of the first is higher: 270 to 271 °C for the first, 195 to 197 °C for the second.

Compared with `NCCC(=O)NCCCO`, `N#Cc1ccc(NC(=O)CCCC(=O)O)cc1` is higher in melting point: 140 to 142 °C for the first, 200 to 201 °C for the second.

First: COCc1c(C(=O)c2ccccc2)ncc2[nH]c3ccc(Oc4ccc(Br)cn4)cc3c12
Second: COC(=O)Nc1nc(-c2ccccc2)c(-c2nc3ccccc3c(=O)n2-c2ccccc2C)s1
The melting point of the first is lower: 193 to 194 °C for the first, > 275 °C for the second.

First: Cc1cc(/C=C/C(=O)N(C)O)c(C)n1-c1ccc(C(=O)N(C)C)cc1
Second: COc1cc(OC)c(-c2cccs2)cc1/C=C/C(=O)c1cccc(C(=O)O)c1
The melting point of the first is lower: 172 to 174 °C for the first, 179 to 182 °C for the second.

Compared with `C=C1N(C2CCCCC2)C(=O)OC12CCN(CCC=C(c1ccc(F)cc1)c1ccc(F)cc1)CC2`, `Cc1cccc(C2CCCN2S(=O)(=O)c2ccc(F)cc2)c1` (racemic) is lower in melting point: 145 to 146 °C for the first, 80 °C for the second.

First: CCCCCCCCCCCCCCCCCCOC(=O)CCC1CCCCC1(c1ccc(O)c(C(C)(C)C)c1)c1ccc(O)c(C(C)(C)C)c1 (configuration not stated)
Second: COC(=O)C1=C(C)NC(C)=C(C(=O)OCC2CCCO2)C1c1cccc(F)c1 (configuration not stated)
The melting point of the first is higher: 155 °C for the first, 66 to 68 °C for the second.

First: Cn1c(Cl)cc(=O)n(C2CCCCC2)c1=O
Second: CC(C)(C)OC(=O)N1CCCN(c2ccc([N+](=O)[O-])cc2)CC1
The melting point of the first is higher: 132 to 133 °C for the first, 128 to 130 °C for the second.

Compared with `O=C1CCc2c1cccc2C(=O)c1ccc(Cl)cc1`, `CC(=O)c1cccc(N2C(=O)CCSC2=S)c1` is higher in melting point: 146 °C for the first, 197 to 199 °C for the second.

First: Oc1nc(Cc2ccc(F)cc2F)ncc1F
Second: Cc1[nH]c(Cl)c(C)c1-c1ccnc(Nc2ccc(F)cc2)n1
The melting point of the first is lower: 155 to 156 °C for the first, 200 to 203 °C for the second.

First: CCC(=O)N=C(Nc1c(Cl)cccc1Cl)SC
Second: O=C(O)c1ccc(CO)c2ccccc12
The melting point of the first is lower: 165 to 170 °C for the first, 183 to 184 °C for the second.

First: CC(C)(C)NCC(O)C(Cl)(Cl)Cl (configuration not stated)
Second: CC(C)(C)C(O)C(Oc1ccccc1)n1ccnc1 (configuration not stated)
The melting point of the first is lower: 48 to 50 °C for the first, 99 to 105 °C for the second.

First: CCOC(=O)N1CC[C@@H](O)[C@H](c2ccccc2)C1 (relative stereo)
Second: OC1(c2cc(F)cc(OCc3ccccc3)c2)CCOCC1
The melting point of the first is lower: 49.5 to 58 °C for the first, 112 °C for the second.

First: CCc1c(OC)cc(C2CNC(=O)C2)cc1OC (configuration not stated)
Second: CC(C)Cc1cc(S(=O)(=O)Cl)c(C(C)C)cc1Cl
The melting point of the first is higher: 156 °C for the first, 90 to 94 °C for the second.

First: CC1CC2(C)C(CCC3C2CCC2(C)C(OCc4ccccc4)CCC32)CC1=O (configuration not stated)
Second: CN(CC(=O)O)C[C@H]1O[C@H](c2ccccc2Cl)c2cc(Cl)ccc2N(Cc2ccccc2)C1=O (relative stereo)
The melting point of the first is lower: 116 to 120 °C for the first, 195 to 197 °C for the second.

Compared with `Cc1cc(C)n(CCOc2cc3c(cc2C)OC2(CC(C)(C)c4cc(O)c(C)cc4O2)CC3(C)C)n1` (configuration not stated), `CCCn1c(COC)nc2c(N)nc3ccc(OCCCN4CCOCC4)cc3c21` is lower in melting point: 223 to 225 °C for the first, 193 to 196 °C for the second.

First: Cn1cc(C(F)(F)F)c(CS(=O)(=O)C2=NOC(C)(C)C2)n1
Second: NS(=O)(=O)c1ccc(-c2cc(-c3nc(-c4ccc(C(F)(F)F)cc4)cc(C(F)F)n3)ccn2)s1
The melting point of the first is lower: 125 to 126 °C for the first, 242 °C for the second.

First: Cn1cncc1C(c1ccc(Cl)cc1)c1ccc2c(c1)C(c1cccc(Cl)c1)SCC(=O)N2 (configuration not stated)
Second: Cc1c(C(=O)Nc2cc(Cl)c(N3CCC(N4CCOCC4)CC3)c(Cl)c2)cnn1-c1ccc(Cl)cc1
The melting point of the first is lower: 187 °C for the first, 246 to 248 °C for the second.

First: CC(=O)NCC1CN(c2ccc(N3CCN(c4ncc([N+](=O)[O-])s4)CC3)c(F)c2)C(=O)O1 (configuration not stated)
Second: CCC(=CC(CNC(=O)c1sc(C)nc1C)=NO)C(C)[N+](=O)[O-] (configuration not stated)
The melting point of the first is higher: 202 to 203 °C for the first, 158 to 159 °C for the second.

`Cc1ccc(C(C#N)C=Cc2ccc(O)c(O)c2)cc1` (configuration not stated) and `N#Cc1ccc(-c2cn(-c3ccc(I)cc3)c(SCCO)n2)cc1` cannot be ordered by melting point: 172 °C for the first, 148 to 172 °C for the second.
